Tests used:
[1] = xn = mol fraction of the nth substance listed; conditions: 298.15 K, 101 kPa, Liquid
[2] = excess molar enthalpy (molar enthalpy of mixing); xn = mol fraction of the nth substance listed; conditions: 298.15 K, 101 kPa, Liquid

BrCCCBr [1,3-dibromopropane] + COC(C)=O
Conditions | excess molar enthalpy [kcal/mol] | mass density [kg/m3]
[1], x2 = 0.0821 | – | 1900.75
[1], x2 = 0.1456 | – | 1845.13
[1], x2 = 0.2131 | – | 1784.87
[1], x2 = 0.2862 | – | 1717.43
[1], x2 = 0.3503 | – | 1656.68
[1], x2 = 0.412 | – | 1596.53
[1], x2 = 0.4744 | – | 1533.88
[1], x2 = 0.535 | – | 1471.53
[1], x2 = 0.5898 | – | 1413.65
[1], x2 = 0.6476 | – | 1350.9
[1], x2 = 0.7027 | – | 1289.26
[1], x2 = 0.7565 | – | 1227.76
[1], x2 = 0.8086 | – | 1166.64
[1], x2 = 0.8558 | – | 1109.89
[1], x2 = 0.905 | – | 1048.62
[1], x2 = 0.9514 | – | 989.83
[2], x2 = 0.08 | 0.034 | –
[2], x2 = 0.1613 | 0.0558 | –
[2], x2 = 0.2406 | 0.0748 | –
[2], x2 = 0.3177 | 0.0867 | –
[2], x2 = 0.3862 | 0.091 | –
[2], x2 = 0.4435 | 0.0934 | –
[2], x2 = 0.4958 | 0.0935 | –
[2], x2 = 0.5468 | 0.0894 | –
[2], x2 = 0.5909 | 0.0838 | –
[2], x2 = 0.6336 | 0.078 | –
[2], x2 = 0.6509 | 0.0747 | –
[2], x2 = 0.6702 | 0.0722 | –
[2], x2 = 0.7094 | 0.0627 | –
[2], x2 = 0.7687 | 0.0505 | –
[2], x2 = 0.8316 | 0.0365 | –
[2], x2 = 0.8928 | 0.0229 | –
[2], x2 = 0.9501 | 0.0112 | –

BrCCCBr [1,3-dibromopropane] + COC=O
Conditions | excess molar enthalpy [kcal/mol] | mass density [kg/m3]
[1], x2 = 0.168 | – | 1858.59
[1], x2 = 0.2514 | – | 1796.92
[1], x2 = 0.3294 | – | 1735.49
[1], x2 = 0.4017 | – | 1674.57
[1], x2 = 0.4684 | – | 1614.73
[1], x2 = 0.5278 | – | 1558.51
[1], x2 = 0.591 | – | 1495.15
[1], x2 = 0.6438 | – | 1439.24
[1], x2 = 0.7014 | – | 1374.75
[1], x2 = 0.7953 | – | 1261.18
[1], x2 = 0.8394 | – | 1203.31
[1], x2 = 0.8849 | – | 1141.17
[1], x2 = 0.9258 | – | 1082.23
[2], x2 = 0.0766 | 0.0726 | –
[2], x2 = 0.1698 | 0.136 | –
[2], x2 = 0.2646 | 0.178 | –
[2], x2 = 0.3543 | 0.204 | –
[2], x2 = 0.4503 | 0.219 | –
[2], x2 = 0.5147 | 0.221 | –
[2], x2 = 0.5752 | 0.216 | –
[2], x2 = 0.6318 | 0.206 | –
[2], x2 = 0.6814 | 0.192 | –
[2], x2 = 0.7238 | 0.176 | –
[2], x2 = 0.7605 | 0.159 | –
[2], x2 = 0.8277 | 0.123 | –
[2], x2 = 0.8783 | 0.0928 | –
[2], x2 = 0.9299 | 0.0593 | –

BrCCCCBr [1,4-dibromobutane] + CCC(=O)OC
Conditions | excess molar enthalpy [kcal/mol] | mass density [kg/m3]
[1], x2 = 0.0733 | – | 1763.63
[1], x2 = 0.1392 | – | 1712.4
[1], x2 = 0.2065 | – | 1658.81
[1], x2 = 0.2725 | – | 1604.96
[1], x2 = 0.3378 | – | 1550.31
[1], x2 = 0.3974 | – | 1499.32
[1], x2 = 0.4596 | – | 1444.8
[1], x2 = 0.5225 | – | 1388.41
[1], x2 = 0.638 | – | 1281.23
[1], x2 = 0.6944 | – | 1227.08
[1], x2 = 0.7466 | – | 1175.87
[1], x2 = 0.7998 | – | 1122.53
[1], x2 = 0.8489 | – | 1072.14
[1], x2 = 0.8998 | – | 1018.87
[1], x2 = 0.9505 | – | 964.61
[2], x2 = 0.074 | 0.0219 | –
[2], x2 = 0.1513 | 0.0366 | –
[2], x2 = 0.2294 | 0.0459 | –
[2], x2 = 0.305 | 0.0495 | –
[2], x2 = 0.3744 | 0.0494 | –
[2], x2 = 0.4375 | 0.0468 | –
[2], x2 = 0.4948 | 0.0428 | –
[2], x2 = 0.546 | 0.0378 | –
[2], x2 = 0.5911 | 0.0327 | –
[2], x2 = 0.6302 | 0.0274 | –
[2], x2 = 0.6539 | 0.0245 | –
[2], x2 = 0.665 | 0.0245 | –
[2], x2 = 0.6965 | 0.0181 | –
[2], x2 = 0.712 | 0.016 | –
[2], x2 = 0.7721 | 0.00839 | –
[2], x2 = 0.8331 | 0.00425 | –
[2], x2 = 0.8921 | 0.00227 | –
[2], x2 = 0.9477 | 0.000956 | –

BrCCCCBr [1,4-dibromobutane] + CCCC(=O)OC
Conditions | excess molar enthalpy [kcal/mol] | mass density [kg/m3]
[1], x2 = 0.121 | – | 1710.83
[1], x2 = 0.1809 | – | 1656.55
[1], x2 = 0.2384 | – | 1604.18
[1], x2 = 0.2953 | – | 1552.31
[1], x2 = 0.3601 | – | 1492.93
[1], x2 = 0.4182 | – | 1439.44
[1], x2 = 0.4848 | – | 1377.96
[1], x2 = 0.5382 | – | 1328.46
[1], x2 = 0.5989 | – | 1272
[1], x2 = 0.653 | – | 1221.36
[1], x2 = 0.7699 | – | 1111.48
[1], x2 = 0.8252 | – | 1059.19
[1], x2 = 0.8804 | – | 1006.8
[2], x2 = 0.0662 | 0.0111 | –
[2], x2 = 0.1525 | 0.019 | –
[2], x2 = 0.2456 | 0.0232 | –
[2], x2 = 0.3392 | 0.0233 | –
[2], x2 = 0.4222 | 0.019 | –
[2], x2 = 0.4708 | 0.0156 | –
[2], x2 = 0.5515 | 0.00743 | –
[2], x2 = 0.6276 | 0.000621 | –
[2], x2 = 0.6882 | -0.00366 | –
[2], x2 = 0.7845 | -0.0054 | –
[2], x2 = 0.8702 | -0.00452 | –
[2], x2 = 0.9455 | -0.00256 | –

Source: the NIST ThermoML archive (doi:10.1016/j.jct.2006.05.004)
